# Key:
# [1] = system: Actinomyces naeslundii PK29/Streptococcus mitis J22; assay: reversal of coaggregation, visual score; assay type: cell-based; settings: pair PK29/J22; sugar 750 mM; water score 4; scale 0 no visible to 4 maximum coaggregation
# Description: (§1) Fifteen oral isolates, including both early colonizers (Streptococcus and Actinomyces) and late colonizers (Fusobacterium, Porphyromonas, Prevotella, Veillonella, Capnocytophaga, and Actinobacillus), were tested for their ability to coaggregate with each other, followed by testing for the reversal of coaggregation by the addition of D-tagatose. Bacterial strains used were of human gingival crevice origin. The coaggregation was examined visually by a scoring system ranging from 0 for no visible coaggregation to 4 for maximum coaggregation [Cisar J. O., Kolenbrander P. E., and McIntire F. C., “Specificity of coaggregation reactions between human oral streptococci and strains of Actinomyces viscosus or Actinomyces naeslundii”, Infect. Immun., 24:742–752. 1979]. D-Tagatose, at a concentration of less than 750 mM, completely reversed the coaggregation of 17 (60%) of 28 strong coaggregating pairs (with a coaggregation score of 2 or higher) tested. […] These D-tagatose sensitive coaggregations were D-galactose reversible as well.
# (§2) Pairs of various species of oral bacteria were tested for coaggregation, and for reversal of coaggregation when D-tagatose or D-galactose was administered.
# [2] = system: Actinomyces naeslundii PK29/Streptococcus morbillorum PK509; assay: reversal of coaggregation, visual score; assay type: cell-based; settings: pair PK29/PK509; sugar 200 mM; water score 2; scale 0 no visible to 4 maximum coaggregation
# Description: as §1, §2
# [3] = system: Actinomyces naeslundii PK947/Streptococcus mitis J22; assay: reversal of coaggregation, visual score; assay type: cell-based; settings: pair PK947/J22; sugar 200 mM; water score 2; scale 0 no visible to 4 maximum coaggregation
# Description: as §1, §2
# [4] = system: Actinomyces naeslundii PK947/Streptococcus oralis C104; assay: reversal of coaggregation, visual score; assay type: cell-based; settings: pair PK947/C104; sugar 200 mM; water score 2; scale 0 no visible to 4 maximum coaggregation
# Description: as §1, §2
# [5] = system: Actinomyces naeslundii PK947/Streptococcus oralis SO34; assay: reversal of coaggregation, visual score; assay type: cell-based; settings: pair PK947/SO34; sugar 200 mM; water score 3; scale 0 no visible to 4 maximum coaggregation
# Description: as §1, §2
# [6] = system: Actinomyces naeslundii PK29/Streptococcus oralis C104; assay: reversal of coaggregation, visual score; assay type: cell-based; settings: pair PK29/C104; sugar 750 mM; water score 4; scale 0 no visible to 4 maximum coaggregation
# Description: as §1, §2
# [7] = system: Actinomyces naeslundii PK29/Streptococcus oralis SO34; assay: reversal of coaggregation, visual score; assay type: cell-based; settings: pair PK29/SO34; sugar 750 mM; water score 4; scale 0 no visible to 4 maximum coaggregation
# Description: as §1, §2
# [8] = system: Fusobacterium nucleatum PK1594/Actinobacillus actinomycetemcomitans JP2; assay: reversal of coaggregation, visual score; assay type: cell-based; settings: pair PK1594/JP2; sugar 600 mM; water score 3; scale 0 no visible to 4 maximum coaggregation
# Description: as §1, §2
# [9] = system: Fusobacterium nucleatum PK1594/Porphyromonas gingivalis PK1924; assay: reversal of coaggregation, visual score; assay type: cell-based; settings: pair PK1594/PK1924; sugar 400 mM; water score 4; scale 0 no visible to 4 maximum coaggregation
# Description: as §1, §2
# [10] = system: Fusobacterium nucleatum PK1594/Veillonella atypica PK1910; assay: reversal of coaggregation, visual score; assay type: cell-based; settings: pair PK1594/PK1910; sugar 200 mM; water score 3; scale 0 no visible to 4 maximum coaggregation
# Description: as §1, §2
# [11] = system: Prevotella loescheii PK1295/Streptococcus mitis J22; assay: reversal of coaggregation, visual score; assay type: cell-based; settings: pair PK1295/J22; sugar 750 mM; water score 4; scale 0 no visible to 4 maximum coaggregation
# Description: as §1, §2
# [12] = system: Streptococcus morbillorum PK509/Prevotella loescheii PK1295; assay: reversal of coaggregation, visual score; assay type: cell-based; settings: pair PK509/PK1295; sugar 600 mM; water score 2; scale 0 no visible to 4 maximum coaggregation
# Description: as §1, §2
# [13] = system: Streptococcus morbillorum PK509/Streptococcus oralis C104; assay: reversal of coaggregation, visual score; assay type: cell-based; settings: pair PK509/C104; sugar 750 mM; water score 3; scale 0 no visible to 4 maximum coaggregation
# Description: as §1, §2
# [14] = system: Streptococcus morbillorum PK509/Streptococcus oralis SO34; assay: reversal of coaggregation, visual score; assay type: cell-based; settings: pair PK509/SO34; sugar 400 mM; water score 2; scale 0 no visible to 4 maximum coaggregation
# Description: as §1, §2
# [15] = system: Streptococcus morbillorum PK509/Veillonella atypica PK1910; assay: reversal of coaggregation, visual score; assay type: cell-based; settings: pair PK509/PK1910; sugar 400 mM; water score 2; scale 0 no visible to 4 maximum coaggregation
# Description: as §1, §2
# [16] = system: Veillonella atypica PK1910/Streptococcus oralis C104; assay: reversal of coaggregation, visual score; assay type: cell-based; settings: pair PK1910/C104; sugar 200 mM; water score 3; scale 0 no visible to 4 maximum coaggregation
# Description: as §1, §2
# [17] = system: Veillonella atypica PK1910/Streptococcus oralis SO34; assay: reversal of coaggregation, visual score; assay type: cell-based; settings: pair PK1910/SO34; sugar 200 mM; water score 3; scale 0 no visible to 4 maximum coaggregation
# Description: as §1, §2
# [18] = system: Prevotella loescheii PK1295/Streptococcus oralis C104; assay: reversal of coaggregation, visual score; assay type: cell-based; settings: pair PK1295/C104; sugar 750 mM; water score 4; scale 0 no visible to 4 maximum coaggregation
# Description: as §1, §2
# [19] = system: Prevotella loescheii PK1295/Streptococcus oralis SO34; assay: reversal of coaggregation, visual score; assay type: cell-based; settings: pair PK1295/SO34; sugar 750 mM; water score 4; scale 0 no visible to 4 maximum coaggregation
# Description: as §1, §2
# [20] = system: coaggregating pairs of oral isolates (early and late colonizers); assay: reversal of coaggregation among fifteen oral isolates (overall); assay type: cell-based, bacterial strains of human gingival crevice origin
# Description: as §1, §2
# [21] = system: F. nucleatum PK1594 and P. gingivalis PK1924; assay: phase-contrast photomicrographs of coaggregation; assay type: cell-based, Fusobacterium nucleatum; Porphyromonas gingivalis; settings: 400 mM final concentration
compound,measurement,setting,value
OC[C@@H](O)[C@@H](O)[C@H](O)[C@@H](O)CO [D-Sorbitol],coaggregation score,[1],4
same,coaggregation score,[2],2
same,coaggregation score,[3],2
same,coaggregation score,[4],1
same,coaggregation score,[5],2
same,coaggregation score,[6],4
same,coaggregation score,[7],4
same,coaggregation score,[8],2
same,coaggregation score,[9],3
same,coaggregation score,[10],1
same,coaggregation score,[11],2
same,coaggregation score,[12],0
same,coaggregation score,[13],1
same,coaggregation score,[14],1
same,coaggregation score,[15],0
same,coaggregation score,[16],1
same,coaggregation score,[17],1
same,coaggregation score,[18],2
same,coaggregation score,[19],1
same,"plaque reversibility, comparison of Table 2",[20]; D-tagatose and D-sorbitol at somewhat higher concentrations than D-galactose,markedly inferior
same,effect on the coaggregating pairs tested,[20]; in contrast to D-tagatose,little or no effect
same,dissociation of coaggregate clumps,[21],did not dissociate the clumps
